System: Axin1
Test: Western blot of Axin1 in mouse EpiSCs
Assay type: cell-based
Conditions: CD1 mouse EpiSCs treated 12 h
Description: (A) TOPFlash™ assay in CD1 mouse EpiSCs treated with the indicated inhibitors for 12 hours. Data represent mean±s.d. of three biological replicates. (B) Representative phase contrast images of CD1 mouse EpiSCs cultured in the indicated conditions for 7 days. (C) Western blot analysis of CD1 mouse EpiSCs treated with the indicated inhibitors for 12 h. (D) qRT-PCR analysis of Axin1 and Axin2 mRNA levels in CD1 mouse EpiSCs stably transfected with Axin1 shRNA or Axin2 shRNA. Data represent mean±s.d. of three biological replicates. (E) Colony assay on CD1 mouse EpiSCs stably transfected with scramble, Axin1, or Axin2 shRNAs. Cells were plated onto a 6-well plate at a density of 5,000 cells/well and cultured in CHIR/IWR-1. Colonies were counted 7 days after plating. Data represent the total combined numbers of colonies from two independent experiments in which each shRNA-transfected group was cultured in one well of a 6-well plate. (F) Representative phase contrast images of CD 1 mouse EpiSCs stably transfected with the indicated shRNAs and cultured in CHIR/IWR-1 for 7 days. (G) Western blot analysis of CD1 mouse EpiSCs overexpressing Flag-tagged Axin1 or Axin2. (H) Representative phase contrast images of CD1 mouse EpiSCs overexpressing Axin1 or Axin2 and cultured in CHIR for 7 days. Axin2-overexpressing EpiSCs could be continually passaged in CHIR alone. Scale bars, 50 μm (B, F and H)
Next, we investigated the mechanism by which CHIR/XAV promotes EpiSC self-renewal. By inhibiting GSK3 phosphorylation of β-catenin, CHIR stabilizes β-catenin, which then trans-locates to the nucleus and forms complexes with DNA-binding proteins, including TCFs, to activate transcription (Logan and Nusse, 2004). […] Axin has two isoforms, Axin1 and Axin2. […] The expression level of Axin2, but not Axin1, was also elevated by CHIR treatment (FIG. 4C), an outcome consistent with previous findings that Axin2 is a direct downstream target of Wnt/β-catenin signaling (Jho et al., 2002). […]

| SMILES | amount of Axin1 protein |
| --- | --- |
| Cc1c[nH]c(-c2cnc(NCCNc3ccc(C#N)cn3)nc2-c2ccc(Cl)cc2Cl)n1 [CHIR99021, 6-((2-((4-(2,4-Dichlorophenyl)-5-(4-methyl-1H-imidazol-2-yl)pyrimidin-2-yl)amino)ethyl)amino)nicotinonitrile] | not Axin1 |
| Oc1nc(-c2ccc(C(F)(F)F)cc2)nc2c1CSCC2 [XAV939, 3,5,7,8-Tetrahydro-2-[4-(trifluoromethyl)phenyl]-4H-thiopyrano[4,3-d]pyrimidin-4-one] | significantly increased |
